Experimental data from patent US9617517B2, “Small chemical compound which promotes induction of differentiation of stem cells into insulin-producing cells and method for inducing differentiation of stem cells into insulin-producing cells using said small chemical compound” (NATIONAL UNIVERSITY CORPORATION KUMAMOTO UNIVERSITY, priority 2011, dated 2017).
Counter-ions that a name gives are not always drawn.

Assays:
[1] = tested on: mouse ES cells (Pdx1/GFP); assay: Differentiation of mouse ES cells into insulin positive cells on nano fiber plate, immunostaining and quantitative image analysis; type: cell-based; details: for effect on differentiation into insulin-expressing cells: compound added d11-d17, insulin staining d17 (FIG. 4, 5, 7, 8, 10); for Relative value of Ins positive cells: number of cells with no compound = 1, concentration of each compound (μM), added d11, d13, d15, analysed d17; for hit confirmed by dose-responsiveness: 0.08 to 10 μM, SK7 ES cells; for induction of the differentiation of stem cells into insulin-producing cells: similar separate experiments; for number of Pdx1/GFP positive cells / number of insulin positive cells: 0 to 10 μM added from d11, counted d17 (FIG. 14)
Excerpt: Two ES cell lines, one expressing green fluorescent protein (GFP) under the control of insulin 1 promoter, designed ING (Higuchi Y., Shiraki N., Yamane K, Qin Z., Mochitate K., Araki K., Senokuchi K., Yamagata K., Hara M., Kume K., and Kume S., Synthesized basement membranes direct the differentiation of mouse embryonic stem cells into pancreatic lineages. J. Cell Science, 123, 2733-2742, 2010), and the other one expressing GFP under the control of Pdx1 promoter, designated SK7 (Shiraki N, Yoshida T, Araki K, et al. Guided differentiation of embryonic stem cells into Pdx1-expressing regional-specific definitive endoderm. Stem Cells. 2008; 26:874-885), were used. Both cell lines were maintained on mouse embryonic fibroblast (MEF) feeders in Glasgow minimum essential medium (Invitrogen) containing 1000 units/ml leukemia inhibitory factor (LIF; Chemicon), 15% Knocked-out Serum Replacement (KSR; Gibco), 1% fetal bovine serum (FBS; Hyclone), 100 μM nonessential amino acids (NEAA; Invitrogen), 2 mM L-glutamine (L-Gln; Invitrogen), 1 mM sodium pyruvate (Invitrogen), 50 units/ml penicillin and 50 μg/ml streptomycin (PS; Invitrogen) and 100 μM β-mercaptoethanol (β-ME; Sigma), as ES maintenance medium.
For the differentiation studies, ES cells were plated at 5,000 cells per well in Corning 96 well plate with Ultra-Web Synthetic Polyamine Surface (#3873XX1, Corning Coster, Cambridge, Miss.), and cultured. The cells were cultured in Dulbecco's Modified Eagle Medium (DMEM: Invitrogen, Glasgow, UK) containing 4500 mg/L glucose, supplemented with NEAA, L-Gln, PS, β-ME, 10 μg/ml insulin (Sigma-Aldrich), 5.5 μg/ml transferrin (Sigma-Aldrich), 6.7 pg/ml selenium (Sigma-Aldrich), and 0.25% Albmax (Invitrogen), 10 ng/mL recombinant human activin-A (R&D Systems, Minneapolis, Minn.), 5 ng/mL; recombinant human bFGF for 7 days (d1-d7) (I of FIG. 1). And then, the medium was changed to RPMI 1640 medium (Invitrogen) containing 2000 mg/L glucose (Sigma, St Louis, Mo.), 1 μM Retinoic acid (Sigma-Aldrich), 50 ng/ml Human Recombinant Fibroblast Growth Factor-10 (Peprotech, Rocky Hill, N.J.), B27 SUPPLEMENT (Invitrogen) and 0.25 μM 3-Keto-N-(aminoethyl-aminocaproyl-dihydrocinnamoyl) cyclopamine Shh Signaling Antagonist II (Calbiochem, San Diego, Calif.) on d7 to d11 (II of FIG. 1). Finally, the medium was switched to DMEM containing 1000 mg/L glucose supplemented with NEAA, L-Gln, PS, β-ME, 10 μg/ml insulin (Sigma-Aldrich), 5.5 μg/ml transferrin (Sigma-Aldrich), 6.7 pg/ml selenium (Sigma-Aldrich), 0.25% Albmax (Invitrogen) and 10 mM nicotinamide (Sigma-Aldrich) on d11 to d17 (III of FIG. 1). Media were replaced every 2 days with fresh medium and growth factors until d17.
All tested small chemical compounds were solved in dimethyl sulfoxide (DMSO) at given concentration. Compounds were added on d11, d13 and d15 in a medium. Final concentration of DMSO was adjusted at 1.0% in all experiments for compounds.
After 17 days cell culture, cultured ES cells were fixed in 4% paraformaldehyde in PBS for 30 min at room temperature, and rinsed several times with PBS. Then, cells were incubated in the added diluted primary antibody in 20% Blocking One (Nacalai tesque, Tokyo, Japan) in PEST (0.1% Tween-20 in PBS) in a humidified chamber for overnight at 4° C. After washing the cells in PBST, cells were incubated with the secondary antibody in 20% Blocking One for 2 hr at room temperature in dark. After washing off the secondary antibody in PBST, cells were counterstained with […] (DAPI) (Roche Diagnostics). The following antibodies were used as First antibodies: Rabbit anti-GFP (MBL International Corp., Woburn, Mass.), Mouse anti-Insulin (Sigma). The following antibodies were used as Secondary antibodies: Alexa 568-conjugated, Alexa 488-conjugated antibodies (Invitrogen) Cells were counterstained with DAPI (Roche Diagnotics, Basel, Switzerland).

Ngn3/GFP mouse ES cells = assay: Ngn3 positive cell inducing rate; type: cell-based
Experimental: The influence exerted on the Ngn3 positive cell inducing rate by addition of TBZ (2.5 μM) or dBu-cAMP (0.6 μM) was confirmed. FIG. 16A is a view schematically showing the addition periods of TBZ or dBu-cAMP, and the addition periods are a) on days 9 to 11 of culture, b) on days 11 to 13 of culture, and c) on days 9 to 13 of culture.
First, the compound was not added or TBZ was added on days 9 to 13 of culture (period c), and visible light photographs and fluorescence of Ngn3/GFP mouse ES cells were observed on day 13 of culture. The left one is a visible light photograph and the right one is fluorescence.
Next, the compound was not added, or TBZ or dBu-cAMP was added under the above-described conditions a), b) and c), and the proportion of GFP positive cells on day 13 of culture was checked. The ratios of the proportions of GFP positive cells and Ngn3 positive cells when the ratio in the case of no addition is 1 are shown in FIG. 16C. […] The order of intensity of the effect was a), c), b) in descending order.

differentiated ES cells [2] = assay: Real time PCR of gene expression in differentiated ES cells; type: cell-based, mouse; details: TBZ 2.5 μM
differentiated ES cells [3] = assay: Secreted insulin and cellular insulin content by mouse c-peptide ELISA; type: cell-based; details: TBZ 2.5 μM, dBu-cAMP 0.6 μM, day 11 to 17; sorted GFP positive cells day 17 (FIG. 18D)

N[C@@H](Cc1c[nH]c2ccc(O)cc12)C(=O)O [5HTP, 5-hydroxytryptophan]
effect on differentiation into insulin-expressing cells [1]: the same effect

CO[C@@H]1[C@@H]2OP(=O)(O)OC[C@H]2O[C@H]1n1c(Sc2ccc(Cl)cc2)nc2c(N)ncnc21 [8-CPT-2-Me-cAMP]
Relative value of Ins positive cells [1]: 3.7

C[N+](C)(C)CCOC(N)=O [Carbachol, carbachol]
effect on differentiation into insulin-expressing cells [1]: increased insulin positive cells

C[C@@](Cc1ccc(O)c(O)c1)(NN)C(=O)O [Carbidopa, carbidopa]
effect on differentiation into insulin-expressing cells [1]: the same effect

CN1CC[C@@]2(C)c3cc(O)ccc3N(C)[C@@H]12.O=C(O)/C=C/C(=O)O [Eseroline fumarate salt, eseroline fumarate]
hit confirmed by dose-responsiveness [1]: positive
effect on differentiation into insulin-expressing cells [1]: increased insulin positive cells
Relative value of Ins positive cells [1]: 1.8

Nc1nc2ncc(CNc3ccc(C(=O)N[C@@H](CCC(=O)O)C(=O)O)cc3)nc2c(=O)[nH]1 [Folic acid, folic acid]
hit confirmed by dose-responsiveness [1]: positive

COc1cc2c(cc1OC)-c1cc3ccc(OC)c(OC)c3c[n+]1CC2 [Palmatine chloride, palmatine chloride]
hit confirmed by dose-responsiveness [1]: positive
effect on differentiation into insulin-expressing cells [1]: increased insulin positive cells

C#CCN(C)Cc1ccccc1 [Pargyline, pargyline hydrochloride]
effect on differentiation of Pdx1 positive cells into insulin-producing cells ([1]; 1 μM Pargyline (FIG. 6, 7)): disturbs the differentiation of Pdx1 positive cells into insulin-producing cells
effect on Pdx1 positive pancreatic precursor cells ([1]; reserpine 0.63 μM, Pargyline 1 μM (FIG. 6, 7)): without influencing the ratio of Pdx1-expressing cells
induction of the differentiation of stem cells into insulin-producing cells [1]: induce the differentiation of stem cells into insulin-producing cells
effect of 1 μM Pargyline on differentiation in presence of reserpine ([1]; with 0.63 μM reserpine): deactivated

COc1cc2c(cc1OC)C1CC(=O)C(CC(C)C)CN1CC2 (stereo not shown) [Tetrabenazine, tetrabenazine]
Ngn3 positive cells (fluorescence) (Ngn3/GFP mouse ES cells; TBZ 2.5 μM on days 9 to 13, observed day 13 (FIG. 16B)): increase of Ngn3 positive cells
number of GFP positive cells (Ngn3/GFP mouse ES cells; TBZ 2.5 μM or dBu-cAMP 0.6 μM, addition days 9-11, 11-13 or 9-13, day 13 (FIG. 16C)): increased in all conditions
expression of Abcc8 (differentiated ES cells [2]; dBu-cAMP 0.6 μM (FIG. 13)): did not increase
expression of Glut2 (differentiated ES cells [2]; dBu-cAMP 0.6 μM (FIG. 13)): did not increase
expression of MafA (differentiated ES cells [2]; dBu-cAMP 0.6 μM (FIG. 13)): increased slightly
expression of Stx1 (differentiated ES cells [2]; dBu-cAMP 0.6 μM (FIG. 13)): increased slightly
expression level of MafA, time course (differentiated ES cells [2]; dBu-cAMP 0.6 μM from day 11, after day 13 (FIG. 15)): promoted
expression level of Nkx6.1 (differentiated ES cells [2]; dBu-cAMP 0.6 μM from day 11, after day 15 (FIG. 15)): strongly promoted
expression level of Ngn3 (differentiated ES cells [2]; dBu-cAMP 0.6 μM from day 11, day 13 and day 15 (FIG. 15)): increased remarkably
expression level of Insulin1 (differentiated ES cells [2]; dBu-cAMP 0.6 μM from day 11, single after day 13, both after day 15 (FIG. 15)): promoted
C-peptide content of GFP positive cells (differentiated ES cells [3]): increased
effect on differentiation into insulin-expressing cells [1]: promoted the differentiation into insulin-expressing cells

C[C@](N)(Cc1ccc(O)cc1)C(=O)O [alpha- Methyltyrosine, α-methyltyrosine]
effect on differentiation into insulin-expressing cells [1]: the same effect

O=C(CCCN1CCN(c2ccccn2)CC1)c1ccc(F)cc1 [azaperone]
induction of the differentiation of stem cells into insulin-producing cells [1]: induce the differentiation of stem cells into insulin-producing cells

CN(C)CCC(c1ccc(Cl)cc1)c1ccccn1 (stereo not shown) [chlorpheniramine maleate]
induction of the differentiation of stem cells into insulin-producing cells [1]: induce the differentiation of stem cells into insulin-producing cells

CN/C(=N/CCSCc1nc[nH]c1C)NC#N [cimetidine]
induction of the differentiation of stem cells into insulin-producing cells [1]: induce the differentiation of stem cells into insulin-producing cells

CN(C)CCCSC(=N)N [dimaprit dihydrochloride]
induction of the differentiation of stem cells into insulin-producing cells [1]: induce the differentiation of stem cells into insulin-producing cells

NCCc1ccc(O)c(O)c1 [dopamine]
effect on insulin positive cells ([1]; 0.1 μM dopamine (FIG. 11B)): decreased insulin positive cells
effect on enhancement effect of dBu-cAMP ([1]; 0.1 μM dopamine with 0.6 μM dBu-cAMP (FIG. 11B)): scarcely influenced
effect on increase of insulin-expressing cells mediated by reserpine ([1]; 0.1 μM dopamine with 0.6 μM reserpine (FIG. 11B)): inhibited completely
concentration inhibiting completely the differentiation of β cells ([1]; FIG. 8): ≥ 100 nM
effect on differentiation into insulin-expressing cells [1]: suppressed the differentiation of pancreas in a dose-dependent manner

Cc1c2ccncc2c(C)c2c1[nH]c1ccccc12 [ellipticine]
hit confirmed by dose-responsiveness [1]: positive

COCCCC/C(=N\OCCN)c1ccc(C(F)(F)F)cc1 [fluvoxamine maleate]
induction of the differentiation of stem cells into insulin-producing cells [1]: induce the differentiation of stem cells into insulin-producing cells

C[C@@H]1C(=O)O[C@H]2C[C@@]34[C@H]5C[C@@H](C(C)(C)C)[C@]36[C@@H](OC(=O)[C@@H]6O)O[C@@]4(C(=O)O5)[C@]21O [ginkgolide A]
induction of the differentiation of stem cells into insulin-producing cells [1]: induce the differentiation of stem cells into insulin-producing cells

NCCc1c[nH]cn1 [histamine]
number of Pdx1/GFP positive cells [1]: did not vary
number of insulin positive cells [1]: decreased in a concentration-dependent manner

OCCOCCN1CCN(C(c2ccccc2)c2ccc(Cl)cc2)CC1 (stereo not shown) [hydroxyzine dihydrochloride]
induction of the differentiation of stem cells into insulin-producing cells [1]: induce the differentiation of stem cells into insulin-producing cells

Cc1nccn1CC1CCc2c(c3ccccc3n2C)C1=O (stereo not shown) [ondansetron hydrochloride]
induction of the differentiation of stem cells into insulin-producing cells [1]: induce the differentiation of stem cells into insulin-producing cells

CCN(CC)CCCC(C)Nc1c2ccc(Cl)cc2nc2ccc(OC)cc12 (stereo not shown) [quinacrine dihydrochloride dihydrate]
induction of the differentiation of stem cells into insulin-producing cells [1]: induce the differentiation of stem cells into insulin-producing cells

NCCc1c[nH]c2ccc(O)cc12 [serotonin]
number of Pdx1/GFP positive cells [1]: did not vary
number of insulin positive cells [1]: decreased in a concentration-dependent manner
